From PubChem BioAssay AID2060910 (Molecular Pharmacology Branch, DTP, NCI, 2025)

Test system: 242566-281-R-J2-PDC complex spheroid viability
Experiment: Anticancer human tumor 242566-281-R-J2-PDC patient-derived pancreatic carcinoma cell line growth inhibition [RAS]
Details: for IC50: curve of first compound; for viability, T/C: stronger effect = lower value; active = viability on the fitted dose curve at most 10% of control; inactive = the rest
In short: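 Tumour cells grown as complex spheroids with HUVEC endothelial cells and mesenchymal stem cells, treated with RAS pathway inhibitor combinations. Each agent spans half-log steps from near clinical Cmax, or 10 microM where Cmax is unknown.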

[1] = second compound 0.00316 µM, first compound 0.0316 µM
[2] = second compound 0.00316 µM, first compound 0.1 µM
[3] = second compound 0.00316 µM, first compound 0.316 µM
[4] = second compound 0.00316 µM, first compound 1 µM
[5] = second compound 0.01 µM, first compound 0.0316 µM
[6] = second compound 0.01 µM, first compound 0.1 µM
[7] = second compound 0.01 µM, first compound 0.316 µM
[8] = second compound 0.01 µM, first compound 1 µM
[9] = second compound 0.0316 µM, first compound 0.0316 µM
[10] = second compound 0.0316 µM, first compound 0.1 µM
[11] = second compound 0.0316 µM, first compound 0.316 µM
[12] = second compound 0.0316 µM, first compound 1 µM
[13] = second compound 0.1 µM, first compound 0.0316 µM
[14] = second compound 0.1 µM, first compound 0.1 µM
[15] = second compound 0.1 µM, first compound 0.316 µM
[16] = second compound 0.1 µM, first compound 1 µM
[17] = second compound 0.316 µM, first compound 0.0316 µM
[18] = second compound 0.316 µM, first compound 0.1 µM
[19] = second compound 0.316 µM, first compound 0.316 µM
[20] = second compound 0.316 µM, first compound 1 µM
[21] = second compound 1 µM, first compound 0.0316 µM
[22] = second compound 1 µM, first compound 0.1 µM
[23] = second compound 1 µM, first compound 0.316 µM
[24] = second compound 1 µM, first compound 1 µM
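Also: spheroids exposed to compound for 7 days before readout.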
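For viability, T/C in this document: 100% = DMSO vehicle control wells.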

CCN1CCN(Cc2ccc(Nc3ncc(F)c(-c4cc(F)c5nc(C)n(C(C)C)c5c4)n3)nc2)CC1 + C=CC(=O)N1CCN(c2nc(OCC3CCCN3C)nc3c(F)c(-c4nc(N)cc(C)c4C(F)(F)F)c(Cl)cc23)C(C)C1
> 1 µM: IC50 (second compound 0.00316 µM) | IC50 (second compound 0.01 µM) | IC50 (second compound 0.0316 µM) | IC50 (second compound 0.1 µM) | IC50 (second compound 0.316 µM) | IC50 (second compound 1 µM)
inactive: viability, T/C (second compound 0.00316 µM, first compound 0.00316 µM) 121% | viability, T/C (second compound 0.00316 µM, first compound 0.01 µM) 135% | viability, T/C [1] 100% | viability, T/C [2] 90.5% | viability, T/C [3] 123% | viability, T/C [4] 167% | viability, T/C (second compound 0.01 µM, first compound 0.00316 µM) 95.2% | viability, T/C (second compound 0.01 µM, first compound 0.01 µM) 160% | viability, T/C [5] 101% | viability, T/C [6] 88.8% | viability, T/C [7] 127% | viability, T/C [8] 154% | viability, T/C (second compound 0.0316 µM, first compound 0.00316 µM) 104% | viability, T/C (second compound 0.0316 µM, first compound 0.01 µM) 120% | viability, T/C [9] 102% | viability, T/C [10] 108% | viability, T/C [11] 131% | viability, T/C [12] 169% | viability, T/C (second compound 0.1 µM, first compound 0.00316 µM) 115% | viability, T/C (second compound 0.1 µM, first compound 0.01 µM) 136% | viability, T/C [13] 97.9% | viability, T/C [14] 89.3% | viability, T/C [15] 130% | viability, T/C [16] 167% | viability, T/C (second compound 0.316 µM, first compound 0.00316 µM) 98.1% | viability, T/C (second compound 0.316 µM, first compound 0.01 µM) 134% | viability, T/C [17] 94.5% | viability, T/C [18] 99.9% | viability, T/C [19] 154% | viability, T/C [20] 154% | viability, T/C (second compound 1 µM, first compound 0.00316 µM) 94.2% | viability, T/C (second compound 1 µM, first compound 0.01 µM) 136% | viability, T/C [21] 94.9% | viability, T/C [22] 96.8% | viability, T/C [23] 138% | viability, T/C [24] 160%

C[C@@H](NC(=O)c1ncnc(N)c1Cl)c1ncc(C(=O)Nc2cc(C(F)(F)F)c(Cl)cn2)s1 + C=CC(=O)N1CCN(c2nc(OCC3CCCN3C)nc3c(F)c(-c4nc(N)cc(C)c4C(F)(F)F)c(Cl)cc23)C(C)C1
> 10 µM: IC50 (second compound 0.00316 µM) | IC50 (second compound 0.01 µM) | IC50 (second compound 0.0316 µM) | IC50 (second compound 0.1 µM) | IC50 (second compound 0.316 µM) | IC50 (second compound 1 µM)
inactive: viability, T/C [1] 111% | viability, T/C [2] 142% | viability, T/C [3] 111% | viability, T/C [4] 106% | viability, T/C (second compound 0.00316 µM, first compound 3.16 µM) 110% | viability, T/C (second compound 0.00316 µM, first compound 10 µM) 126% | viability, T/C [5] 112% | viability, T/C [6] 148% | viability, T/C [7] 113% | viability, T/C [8] 105% | viability, T/C (second compound 0.01 µM, first compound 3.16 µM) 105% | viability, T/C (second compound 0.01 µM, first compound 10 µM) 122% | viability, T/C [9] 125% | viability, T/C [10] 124% | viability, T/C [11] 115% | viability, T/C [12] 123% | viability, T/C (second compound 0.0316 µM, first compound 3.16 µM) 97.1% | viability, T/C (second compound 0.0316 µM, first compound 10 µM) 118% | viability, T/C [13] 122% | viability, T/C [14] 153% | viability, T/C [15] 107% | viability, T/C [16] 113% | viability, T/C (second compound 0.1 µM, first compound 3.16 µM) 106% | viability, T/C (second compound 0.1 µM, first compound 10 µM) 109% | viability, T/C [17] 107% | viability, T/C [18] 124% | viability, T/C [19] 122% | viability, T/C [20] 112% | viability, T/C (second compound 0.316 µM, first compound 3.16 µM) 110% | viability, T/C (second compound 0.316 µM, first compound 10 µM) 124% | viability, T/C [21] 111% | viability, T/C [22] 124% | viability, T/C [23] 119% | viability, T/C [24] 103% | viability, T/C (second compound 1 µM, first compound 3.16 µM) 117% | viability, T/C (second compound 1 µM, first compound 10 µM) 106%
